Experimental data published in ChEMBL document CHEMBL5357018, “Discovery of Malarial Threonyl tRNA Synthetase Inhibitors by Screening of a Focused Fragment Library” (ACS Med Chem Lett, 2024).

Legend:
[1] = target: T1, threonine--tRNA ligase (Plasmodium falciparum, UniProt Q8IIA4)
T1 sequence (Q8IIA4 whole entry): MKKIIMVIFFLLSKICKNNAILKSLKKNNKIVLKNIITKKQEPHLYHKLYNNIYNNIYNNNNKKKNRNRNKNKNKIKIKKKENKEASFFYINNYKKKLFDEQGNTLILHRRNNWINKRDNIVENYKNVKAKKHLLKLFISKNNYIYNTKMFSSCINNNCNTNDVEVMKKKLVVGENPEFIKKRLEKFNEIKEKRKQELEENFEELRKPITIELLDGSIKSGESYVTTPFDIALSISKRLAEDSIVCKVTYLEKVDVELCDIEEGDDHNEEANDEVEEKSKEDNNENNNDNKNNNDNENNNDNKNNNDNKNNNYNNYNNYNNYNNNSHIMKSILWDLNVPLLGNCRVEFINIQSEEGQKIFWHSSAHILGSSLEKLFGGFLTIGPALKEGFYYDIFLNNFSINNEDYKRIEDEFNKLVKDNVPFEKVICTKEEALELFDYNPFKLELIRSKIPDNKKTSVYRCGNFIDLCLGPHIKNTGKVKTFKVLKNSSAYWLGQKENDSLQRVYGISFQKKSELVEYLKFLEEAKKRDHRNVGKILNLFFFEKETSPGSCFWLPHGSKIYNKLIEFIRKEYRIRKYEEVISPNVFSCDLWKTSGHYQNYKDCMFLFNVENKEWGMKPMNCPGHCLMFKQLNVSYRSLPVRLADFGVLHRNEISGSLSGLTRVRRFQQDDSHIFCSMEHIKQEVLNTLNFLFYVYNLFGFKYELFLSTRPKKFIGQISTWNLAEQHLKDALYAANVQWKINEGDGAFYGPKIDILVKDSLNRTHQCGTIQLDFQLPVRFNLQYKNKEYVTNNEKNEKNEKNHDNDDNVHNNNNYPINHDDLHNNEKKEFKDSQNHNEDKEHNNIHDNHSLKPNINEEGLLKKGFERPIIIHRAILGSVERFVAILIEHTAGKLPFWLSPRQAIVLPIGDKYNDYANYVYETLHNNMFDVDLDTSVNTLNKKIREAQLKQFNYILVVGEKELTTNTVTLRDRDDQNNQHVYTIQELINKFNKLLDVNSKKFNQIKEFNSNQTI
Description: Inhibition of 6xHis-tag recombinant Plasmodium falciparum threonyl tRNA synthetase expressed in Escherichia using L-threonine and total tRNA by luminescence based assay

[2] = target: T1, threonine--tRNA ligase; assay: Inhibition of Plasmodium falciparum Threonyl tRNA synthetase
[3] = target: T1, threonine--tRNA ligase; remark: listed apart in the source

Row | IC50 [1] | IC50 [2] | SMILES | Ki [3]
1 | 30 µM | – | C[C@@H](O)[C@H](N)C(=O)NS(=O)(=O)Oc1ccc2ccccc2c1 | –
2 | 0.1 µM | – | C[C@@H](O)[C@H](N)C(=O)NS(=O)(=O)c1nc2cc(-c3cc(N)ncn3)ccc2s1 | –
3 | – | 0.16 µM | C[C@@H](O)[C@H](N)C(=O)NS(=O)(=O)OC[C@H]1O[C@@H](n2cnc3c(N)ncnc32)[C@H](O)[C@@H]1O | –
4 | 51 µM | – | C[C@@H](O)[C@H](N)C(=O)NS(=O)(=O)Oc1ccccc1 | –
5 | – | 33 µM | C[C@@H](O)[C@H](N)C(=O)NS(=O)(=O)/C=C/c1ccccc1 | –
6 | – | 0.057 µM | C[C@@H](O)[C@H](N)C(=O)NS(=O)(=O)/C=C/c1cccc(-c2cc(N)ncn2)c1 | –
7 | 36 µM | – | C[C@@H](O)[C@H](N)C(=O)NS(=O)(=O)Oc1cccc2ccccc12 | –
8 | 0.8 µM | – | C[C@@H](O)[C@H](N)C(=O)NS(=O)(=O)Oc1ccc(-c2cc(N)ncn2)cc1 | –
9 | 0.7 µM | – | C[C@@H](O)[C@H](N)C(=O)NS(=O)(=O)Oc1cccc2nn(-c3cc(N)ncn3)cc12 | –
10 | 71 µM | – | C[C@@H](O)[C@H](N)C(=O)NS(=O)(=O)c1nc2ccccc2s1 | –
11 | – | 0.44 µM | C[C@@H](O)[C@H](N)C(=O)NP(=O)(O)OC[C@@H]1C[C@H](O)[C@H](n2cnc3c(N)ncnc32)O1 | –
12 | 55 µM | – | C[C@@H](O)[C@H](N)C(=O)NS(=O)(=O)Oc1cccc2cccnc12 | –

Row | SMILES | IC50 [1] | IC50 [2] | Ki [3]
13 | C[C@@H]1C[C@H](C)C[C@H](C)[C@@H](O)CC(=O)O[C@H]([C@@H]2CCC[C@H]2C(=O)O)C/C=C/C=C(/C#N)[C@H](O)[C@@H](C)C1 [BORRELIDIN] | – | 0.043 µM | 0.16 µM
